Experimental data: patent publication US20240366612A1, “COMPOUNDS AND METHODS FOR MODULATING NUCLEIC ACID SPLICING” (REMIX THERAPEUTICS INC., priority 2021, published 2024)
pIC50: −log10 of the molar value. Where a name gives a salt, the structure may show the parent alone.

Assays:
[1] = tested on: HiBiT-tagged MYB protein in K562 cells; assay: HiBiT protein abundance assay, MYB; format: cell-based, human; conditions: HiBiT-modified K562 cells, 24 hours, luminescence
Description: Compounds described herein were used to screen for effects on quantitative protein abundance using a HiBit assay system (Promega). Quantitative protein abundance was determined by measuring the protein levels of HiBit-tagged protein targets expressed in cell culture via luminescence using the Nano-Glo HiBiT Lytic Detection System, which uses a split complementation assay format to reconstitute NanoBiT enzyme to generate a luminescent signal. A protein abundance assay was developed such that endogenous protein targets could be modified with the HiBiT peptide tag and their abundance could be assessed after compound treatment. Briefly, K562 cell lines containing a HiBiT-modification were treated with various compounds described herein (e.g., compounds of Formulas (I), (II), or (III)). After treatment for 24 hours, the protein abundance of a specific target was determined by measuring luminescence.
• Promega Nano-Glo HiBiT Lytic Detection System (cat #N3030) • Corning 384-well TC-treated microplates (cat #3570) • Synthego Engineered Cells Knock-In Clones
Cells were maintained in IMDM with 10% FBS. Before the assay, cells were diluted with […] growth media (IMDM+1% FBS media) and were seeded in a 384-well plate at a density of 10000 cells/well (for each cell line listed in Table 5). Each compound was prepared as a 10-point 3-fold serial dilution in DMSO with the top dose at a final concentration of 10 μM in the well. Unmodified K562 cells were added at the previously specified density with DMSO to serve as an assay baseline and positive control (PC) and DMSO only with the respective modified cell lines was added to the negative control (NC) columns. Final DMSO concentration was kept at or below 0.25%. Treated cell plates were placed in an incubator at 37° C. with 5% CO2 for 24 hours. After 24 hours, 25 μL of Complete HiBit Lytic reagent was added to each well at room temperature (e.g. one plate requiring 10 mL Lytic Buffer, 100 μL LgBiT Protein, 200 μL Lytic Substrate), shaken for 5 minutes at 600 RPM, then left to sit for 10 minutes for signal to stabilize before reading on a Spark Cyto plate reader (Tecan) with a 500 ms measurement time.
To determine compound effects on protein abundance of each target in Table 5, the percent response for each respective cell line was calculated at each compound concentration as follows:
For the normalized response at each concentration, a four-parameter logistical regression was fit to the data and the response was interpolated at the 50% value to determine a concentration for protein abundance at 50% (IC50) the untreated control.

Target C CJ mRNA = assay: Gene panel canonical junction qPCR assay, Target C; format: cell-based; conditions: Homo sapiens, larger gene panel, read-out: Target C IC50 (decrease in CJ mRNA levels)
Description: Compounds described herein were used to modulate RNA transcript abundance in cells. The expression of a target mRNA was measured by detecting the formation of an exon-exon junction in the canonical transcript (CJ). A compound mediated exon-inclusion event was detected by observing an increase in formation of a new junction with an alternative exon (AJ). Real-time qPCR assays were used to detect these splicing switches and interrogate the potency of various compounds towards different target genes. A high-throughput real time quantitative PCR (RT-qPCR) assay was developed to measure these two isoforms of the mRNA (CJ and AJ) for exemplary genes, such as HTT, SMN2, and MYB, together with a control housekeeping gene, GAPDH or GUSB or PPIA, used for normalization. Briefly, the A673 or K562 cell line was treated with various compounds described herein (e.g., compounds of Formula (I)). After treatment, the levels of the HTT, MYB, or SMN2 mRNA targets were determined from each sample of cell lysate by cDNA synthesis followed by qPCR.
The A673 cell line was cultured in DMEM with 10% FBS. Cells were diluted with full growth media and plated in a 96-well plate (15,000 cells in 100 ul media per well). The plate was incubated at 37° C. with 5% CO2 for 24 hours to allow cells to adhere. An 11-point 3-fold serial dilution of the compounds was made in DMSO then diluted in media in an intermediate plate. Compounds were transferred from the intermediate plate to the cell plate with the top dose at a final concentration of 10 uM in the well. Final DMSO concentration was kept at or below 0.25%. The cell plate was returned to the incubator at 37° C. with 5% CO2 for an additional 24 hours.
The K562 cell line was cultured in IMDM with 10% FBS. For K562, cells were diluted with full growth media and plated in either a 96-well plate (50,000 cells in 50 uL media per well) or a 384-well plate (8,000-40,000 cells in 45 uL media per well). An 11-point 3-fold serial dilution of the compounds were made in DMSO then diluted in media in an intermediate plate. Compound was transferred from the intermediate plate to the cell plate with the top dose at a final concentration of 10 uM in the well. Final DMSO concentration was kept at or below 0.25%. Final volume was 100 uL for 96-well plate and 50 uL for 384-well plate. The cell plate was then placed in an incubator at 37° C. with 5% CO2 for 24 hours.
The data analysis was performed by first determining the ΔCt vs the housekeeper gene. This ΔCt was then normalized against the DMSO control (ΔΔCt) and converted to RQ (relative quantification) using the 2^(−ΔΔCt) equation. The RQ were then converted to a percentage response by arbitrarily setting an assay window of 3.5 and 4.0 ΔCt for HTT-CJ and MYB-CJ respectively and an assay window of 9 and 3 ΔCt for HTT-AJ and MYB-AJ in 96 well format (50,000 K562 cells/well and 15,000 A673 cells per well) and an assay window of 3 and 4 ΔCt for HTT-CJ and MYB-CJ respectively and an assay window of 5 and 3 ΔCt for HTT-AJ and MYB-AJ respectively in 384 well format (8,000 K562 cells/well example). […] The percentage response was then fitted to the 4 parametric logistic equation to evaluate the concentration dependence of compound treatment. The increase in AJ mRNA is reported as AC50 (compound concentration having […] in AJ increase) while the decrease in CJ mRNA levels is reported as IC50 (compound concentration having 50% response in CJ decrease).
Additional studies were carried out for a larger panel of genes using the protocol provided above. The junction between flanking upstream and downstream exons was used to design canonical junction qPCR assays. At least one of the forward primer, reverse primer or the CY5-labeled 5′ nuclease probe (with 3′ quencher such as ZEN/Iowa Black FQ) was designed to overlap with the exon junction to capture the CJ mRNA transcript. […]

Compound | pIC50 [1] | pIC50 (Target C CJ mRNA)
Cc1cn2cc(-c3nn4c(=O)cc(N(C)C5CC(C)(C)NC(C)(C)C5)nc4s3)cc(F)c2n1 [Compound 215, 2-(8-fluoro-2-methylimidazo[1,2-a]pyridin-6-yl)-7-(methyl(2,2,6,6-tetramethylpiperidin-4-yl)amino)-5H-[1,3,4]thiadiazolo[3,2-a]pyrimidin-5-one] | 5.00 to 6.00 | 5.00 to 6.00
Cc1cn2cc(-c3nn4c(=O)cc(N5CCNC6(CC6)C5)nc4s3)cc(F)c2n1 [Compound 216, 2-(8-fluoro-2-methylimidazo[1,2-a]pyridin-6-yl)-7-(4,7-diazaspiro[2.5]octan-7-yl)-5H-[1,3,4]thiadiazolo[3,2-a]pyrimidin-5-one] | 5.00 to 6.00 | 5.00 to 6.00
Cc1cn2cc(-c3nn4c(=O)cc(N5CCN(C)CC5)nc4s3)cc(F)c2n1 [Compound 217, 2-(8-fluoro-2-methylimidazo[1,2-a]pyridin-6-yl)-7-(4-methylpiperazin-1-yl)-5H-[1,3,4]thiadiazolo[3,2-a]pyrimidin-5-one] | 5.00 to 6.00 | 5.00 to 6.00
Cc1cn2cc(-c3nn4c(=O)cc(N5CCN(C)C6(CC6)C5)nc4s3)cc(F)c2n1 [Compound 218, 2-(8-fluoro-2-methylimidazo[1,2-a]pyridin-6-yl)-7-(4-methyl-4,7-diazaspiro[2.5]octan-7-yl)-5H-[1,3,4]thiadiazolo[3,2-a]pyrimidin-5-one] | 5.00 to 6.00 | 5.00 to 6.00
Cn1cc2cc(-n3cnc4nc(N5CCNCC5)sc4c3=O)ccc2n1 [Compound 225, 6-(2-methyl-2H-indazol-5-yl)-2-(piperazin-1-yl)thiazolo[4,5-d]pyrimidin-7(6H)-one] | < 5.00 | < 5.00
Cc1cn2cc(-n3cnc4nc(N5CCNCC5)sc4c3=O)cc(F)c2n1 [Compound 226, 6-(8-fluoro-2-methylimidazo[1,2-a]pyridin-6-yl)-2-(piperazin-1-yl)thiazolo[4,5-d]pyrimidin-7(6H)-one] | 6.00 to 7.00 | 6.00 to 7.00
Cc1cn2cc(-n3cnc4nc(N(C)C5CC(C)(C)NC(C)(C)C5)sc4c3=O)cc(F)c2n1 [Compound 227, 6-(8-fluoro-2-methylimidazo[1,2-a]pyridin-6-yl)-2-(methyl(2,2,6,6-tetramethylpiperidin-4-yl)amino)thiazolo[4,5-d]pyrimidin-7(6H)-one, formate] | < 5.00 | < 5.00
Cc1cn2cc(-n3cnc4nc(N5CCN(C)CC5)sc4c3=O)cc(F)c2n1 [Compound 228, 6-(8-fluoro-2-methylimidazo[1,2-a]pyridin-6-yl)-2-(4-methylpiperazin-1-yl)thiazolo[4,5-d]pyrimidin-7(6H)-one] | 5.00 to 6.00 | 5.00 to 6.00
Cc1cn2cc(-n3cnc4nc(N5CCNCC5)sc4c3=O)cc(C(F)(F)F)c2n1 [Compound 229, 6-(2-methyl-8-(trifluoromethyl)imidazo[1,2-a]pyridin-6-yl)-2-(piperazin-1-yl)thiazolo[4,5-d]pyrimidin-7(6H)-one] | < 5.00 | < 5.00
Cc1cn2cc(-n3cnc4nc(N5CCN(C)CC5)sc4c3=O)cc(C(F)(F)F)c2n1 [Compound 230, 6-(2-methyl-8-(trifluoromethyl)imidazo[1,2-a]pyridin-6-yl)-2-(4-methylpiperazin-1-yl)thiazolo[4,5-d]pyrimidin-7(6H)-one] | < 5.00 | < 5.00
Cc1cn2nc(-c3nc4ncn(C5CCNCC5)c(=O)c4s3)cc(C)c2n1 [Compound 231, 2-(2,8-dimethylimidazo[1,2-b]pyridazin-6-yl)-6-(piperidin-4-yl)thiazolo[4,5-d]pyrimidin-7(6H)-one] | 6.00 to 7.00 | 5.00 to 6.00
Cc1cn2cc(-c3nc4ncn(C5CCNCC5)c(=O)c4s3)cc(F)c2n1 [Compound 232, 2-(8-fluoro-2-methylimidazo[1,2-a]pyridin-6-yl)-6-(piperidin-4-yl)thiazolo[4,5-d]pyrimidin-7(6H)-one] | 6.00 to 7.00 | 6.00 to 7.00
Cc1cc(-c2nc3ncn(C4CCNCC4)c(=O)c3s2)cc2cn(C)nc12 [Compound 233, 2-(2,7-dimethyl-2H-indazol-5-yl)-6-(piperidin-4-yl)thiazolo[4,5-d]pyrimidin-7(6H)-one] | > 7.00 | 6.00 to 7.00
Cc1cc(-c2nc3ncn(C4CCN(C)CC4)c(=O)c3s2)cc2cn(C)nc12 [Compound 234, 2-(2,7-dimethyl-2H-indazol-5-yl)-6-(1-methylpiperidin-4-yl)thiazolo[4,5-d]pyrimidin-7(6H)-one] | > 7.00 | 5.00 to 6.00
Cc1cn2cc(-c3cc4ncn(C5CCNCC5)c(=O)c4s3)cc(F)c2n1 [Compound 235, 6-(8-fluoro-2-methylimidazo[1,2-a]pyridin-6-yl)-3-(piperidin-4-yl)thieno[3,2-d]pyrimidin-4(3H)-one] | 6.00 to 7.00 | 6.00 to 7.00
Cc1cc(-c2cc3ncn(C4CCNCC4)c(=O)c3s2)cc2cn(C)nc12 [Compound 236, 6-(2,7-dimethyl-2H-indazol-5-yl)-3-(piperidin-4-yl)thieno[3,2-d]pyrimidin-4(3H)-one] | > 7.00 | 6.00 to 7.00
Cc1cc(-c2cc3ncn(C4CCN(C)CC4)c(=O)c3s2)cc2cn(C)nc12 [Compound 237, 6-(2,7-dimethyl-2H-indazol-5-yl)-3-(1-methylpiperidin-4-yl)thieno[3,2-d]pyrimidin-4(3H)-one] | > 7.00 | 5.00 to 6.00
Cc1cn2nc(-c3cc4ncn(C5CCNCC5)c(=O)c4s3)cc(C)c2n1 [Compound 238, 6-(2,8-dimethylimidazo[1,2-b]pyridazin-6-yl)-3-(piperidin-4-yl)thieno[3,2-d]pyrimidin-4(3H)-one] | 6.00 to 7.00 | 5.00 to 6.00
